Paper PMC9025555, “Chiral Recognition R- and RS- of New Antifungal: Complexation/Solubilization/Dissolution Thermodynamics and Permeability Assay” (Pharmaceutics, 2022)

Key:
[1] = Thermodynamics of complexation, solubilization and inherent dissolution (mole fraction scale); type: physicochemical; settings: for Gibbs free energy of transfer from pure buffer pH 2.0 to CD solution: Eq. (10)
Experimental: The Gibbs energy change of the inherent (in pure aqueous buffer without CD) dissolution ( ΔGinh/sol0,X ) in mole fraction scale was derived from the compound mole fraction solubility ( X20 ) in the following way:(8) ΔGinh/sol0,X=−RTlnX20
The standard solution enthalpies ΔHinh/sol0,X and entropies ΔSinh/sol0,X were calculated using a linear dependence between lnX20 and 1/T and van’t Hoff equation:(9) lnX20=−ΔHinh/sol0,X/RT+ΔSinh/sol0,X/R
The free energy of transferring a compound from the aqueous buffer solution to the CD solution of a certain CD concentration ( CCD ) (corresponds to solubilization process) was calculated by Equation (10):(10) ΔGslbz0,X(CCD)=−RTlnX2/X20, where X20 is the inherent solubility of the drug in mole fraction in the absence of CD at temperature T, and X2 is the total solubility in the presence of CD at the same temperature, R is the universal gas constant. The solubilization enthalpy ( ΔHslbz0,X(CCD) ) and entropy ( TΔSslbz0,X(CCD) ) were derived as follows:(11) ΔHslbz0,X(CCD)=ΔHsol0,X(CCD)−ΔHsol0,X (12) TΔSslbz0,X(CCD)=TΔSsol0,X(CCD)−TΔSsol0,X where ΔHsol0,X and ΔSsol0,X are the enthalpy and entropy of solubility process of the investigated compounds in the absence of CD, whereas ΔHsol0,X(CCD) and ΔSsol0,X(CCD) are the enthalpy and entropy of solubility process in the presence of CD with concentration CCD .
In order to determine the thermodynamic parameters of the complex formation for the compounds with CD, the stability constants ( KCX , mole fraction scale) at different temperatures were obtained using the phase diagrams and mole fractions ( X20 ) (analogously to Equation (3) by the following equation:(13) KCX=slope/X20⋅(1−slope),
Respectively, the Gibbs energy of the complexation in mole fraction scale ( ΔGC0,X ) was derived from the stability constants ( KCX ) in the following way:(14) ΔGC0,X=−RTlnKCX
The thermodynamic parameters of the complexation, i.e., the standard enthalpy change ( ΔHC0,X ) and the standard entropy change ( ΔSC0,X ) were calculated with the help of the integral form of the van’t Hoff’s equation:(15) lnKCX=−ΔHC0,X/RT+ΔSC0,X/R where a plot of lnKCX versus 1/T produces Slope = −ΔHC0,X/R and intercept equal to ΔSC0,X/R .
In order to understand the contribution of the hydrophobic effect (desolvation) to the complexation process on a relative scale, the approach disclosing the correlation of the free energy of complex formation with the free energy of the substance solubility in the same buffer solution proposed by Al Omari et al. was applied. To this end, the Gibbs energy of complex formation ( ΔGCT,X ) and inherent dissolution ( ΔGinh/solT,X ) in mole fraction scale were used. A linear correlation between ΔGCT,X and ΔGsolT,X results in Equation (16):(16) ΔGCT,X=a⋅ΔGinh/solT,X+b where the slope (a) is the magnitude of the hydrophobic effect, and the intercept (b) is the structural factor. […]

[2] = Phase solubility study (shake-flask) in buffers with 2-HP-β-CD; settings: for Experimental solubility (S2): pH 2.0, S2 10^3/M
Experimental: An excess amount of the substance was placed in the glass screw-capped vials with the solvent. The vials were stirred in an air thermostat for a certain period of time (a period of 3 days was estimated to be enough for reaching the equilibrium between the solid and the solvent). Then, the saturated solutions were kept in a thermostat in mild conditions no less than 12 h and thereafter centrifuged at a fixed temperature (Biofuge pico, Thermo Electron LED GmbH, Langenselbold, Germany) for 10 min at 12,000 rpm. […] The experimental results were reported as an average of at least three replicated experiments. Temperature uncertainty was ±0.1 K. The sensitivity of UV spectroscopic determinations was characterized by the values of the limit of detection (LOD)/limit of quantification (LOQ).

[3] = buffer pH 2.0, 298.15 K, mole fraction scale
[4] = buffer pH 2.0 without CD, 298.15 K, mole fraction scale

In the case of O=C1S/C(=C\c2ccc(Cl)cc2)C(=O)N1CC(O)CN1CCN(CC(O)(Cn2cncn2)c2ccc(F)cc2F)CC1 (stereo not shown) [RS-186, (Z)-5-(4-chlorobenzylidene)-3-(3-(4-(2-(2,4-difluorophenyl)-2-hydroxy-3-(1H-1,2,4-triazol-1-yl)propyl)piperazin-1-yl)-2-hydroxypropyl)thiazolidine-2,4-dione], the “Gibbs free energy of transfer from pure buffer pH 2.0 to CD solution” value (from here on “Gibbs free energy of transfer”) ([1]; CCD 0.01, 298.15 K) is reported as -4.73, the “Gibbs free energy of transfer” value ([1]; CCD 0.01, 303.15 K) is reported as -4.83 and the “Gibbs free energy of transfer” value ([1]; CCD 0.01, 310.15 K) is reported as -5.12. The “Gibbs free energy of transfer” value ([1]; CCD 0.01, 313.15 K) was -5.43, the “Gibbs free energy of transfer” value ([1]; CCD 0.03, 298.15 K) was -6.90 and the “Gibbs free energy of transfer” value ([1]; CCD 0.03, 303.15 K) was -7.10. For the same molecule, the “Gibbs free energy of transfer” value ([1]; CCD 0.03, 310.15 K) was -7.36, the “Gibbs free energy of transfer” value ([1]; CCD 0.03, 313.15 K) was -7.66 and the “Gibbs free energy of transfer” value ([1]; CCD 0.04, 298.15 K) was -7.64. For the same molecule, the “Gibbs free energy of transfer” value ([1]; CCD 0.04, 303.15 K) was -7.84, the “Gibbs free energy of transfer” value ([1]; CCD 0.04, 310.15 K) was -8.15 and the “Gibbs free energy of transfer” value ([1]; CCD 0.04, 313.15 K) was -8.52. For the same molecule, the “Gibbs free energy of transfer” value ([1]; CCD 0.05, 298.15 K) was -8.22, the “Gibbs free energy of transfer” value ([1]; CCD 0.05, 303.15 K) was -8.43 and the “Gibbs free energy of transfer” value ([1]; CCD 0.05, 310.15 K) was -8.75. The “Gibbs free energy of transfer” value ([1]; CCD 0.05, 313.15 K) was -9.06, the “slope (a) of ΔGC versus ΔGsol correlation, magnitude of the hydrophobic effect” value ([1]; Equation (16), pH 2.0, mole fraction scale) was −0.611 and the “solubilization: change of the standard Gibbs energy (ΔGslbz0,X)” value ([1]; buffer pH 2.0, 298.15 K, calculated at maximal 0.05 M CD concentration) was -1.96 kcal/mol. For the same molecule, the “change of the standard Gibbs energy of inclusion complex formation (ΔGC0,X)” value [1, 3] was -3.7 kcal/mol, the “enthalpy of inclusion complex formation (ΔHC0,X)” value [1, 3] was -2.22 ± 0.311 kcal/mol and the “entropy of inclusion complex formation (TΔSC0,X)” value [1, 3] was 1.48 ± 0.22 kcal/mol. The “solubilization entropy (TΔSslbz0,X)” value [1, 3] was 3.59 ± 0.789 kcal/mol, the “inherent solubility Gibbs energy (ΔGinh/sol0,X)” value [1, 4] was 7.17 kcal/mol and the “inherent solubility enthalpy (ΔHinh/sol0,X)” value [1, 4] was 4.54 ± 0.526 kcal/mol. The “inherent solubility entropy (TΔSinh/sol0,X)” value [1, 4] was -2.63 ± 0.359 kcal/mol, the “ratio |ΔHC0,X| > |TΔSC0,X|” value ([1]; complexation, pH 2.0, 298.15 K) was “about 1.5 fold” and the “Complexation constant (KCX)” value ([1]; mole fraction scale, buffer pH 2.0, 298.15 K) was 525.2 ± 52.9. For the same molecule, the “contribution of the hydrophobic interactions to the driving force for complex stability” value ([1]; pH 2.0) was about 61%, the “effect of CD on the solubility (enhancement)” value ([2]; acidic buffer, 298.15 K) was 28 fold and the “effect of CD on the solubility (enhancement)” value ([2]; buffer pH 7.4, 298.15 K) was 148 fold. For the same molecule, the “Experimental solubility (S2)” value ([2]; 298.15 K, 2-HP-β-CD 0 M) was 0.50 ± 0.01 10^3/M, the “Experimental solubility (S2)” value ([2]; 298.15 K, 2-HP-β-CD 0.01 M) was 3.37 ± 0.08 10^3/M and the “Experimental solubility (S2)” value ([2]; 298.15 K, 2-HP-β-CD 0.03 M) was 8.10 ± 0.22 10^3/M. For the same molecule, the “Experimental solubility (S2)” value ([2]; 298.15 K, 2-HP-β-CD 0.04 M) was 10.90 ± 0.31 10^3/M, the “Experimental solubility (S2)” value ([2]; 298.15 K, 2-HP-β-CD 0.05 M) was 13.80 ± 0.40 10^3/M and the “Experimental solubility (S2)” value ([2]; 303.15 K, 2-HP-β-CD 0 M) was 0.54 ± 0.01 10^3/M. The “Experimental solubility (S2)” value ([2]; 303.15 K, 2-HP-β-CD 0.01 M) was 3.40 ± 0.04 10^3/M.
